Laboratory results: US20250313563A1, “GLYCOGEN SYNTHASE KINASE 3 INHIBITORS AND USES THEREOF” (The Broad Institute, Inc., priority 2022, published 2025)
Where two headings read alike, the source gives them in different places.

Experiments:
[1] = biological target: GSK3α (GST-full length GSK3α) (Homo sapiens (Human), UniProt P49840); experiment: GSK3α TR-FRET kinase assay; type: biochemical
How it was run: (§1)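 Compound was preincubated 30 min with 1 nM GST-GSK3 enzyme. Reaction ran 100 min at ambient temperature in Tris pH 7.5/MgCl2 with 200 nM biotinylated pS645-glycogen synthase 631-650 peptide and ATP (4 μM GSK3α, 2 μM GSK3b, or 1 mM). The EDTA-stopped reaction was read by TR-FRET (Tb-anti-pSer641/streptavidin-d2), and IC50s were fitted.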

[2] = biological target: GSK3b (GST-full length GSK3b) (Homo sapiens (Human), UniProt P49841); experiment: GSK3b TR-FRET kinase assay; type: biochemical
How it was run: as §1

[3] = 1 nM GSK3α, 4 μM ATP, 30 minute preincubation, geometric mean, read-out: GSK3-A TR-FRET BIOCHEMICAL (TR-FRET), GMean, IC50
[4] = read-out: GSK3-A (TR-FRET 1 mM ATP), GMean, IC50, 1 mM ATP, geometric mean
[5] = 1 nM GSK3b, 2 μM ATP, 30 minute preincubation, geometric mean, read-out: GSK3-B TR-FRET BIOCHEMICAL (TR-FRET), GMean, IC50
[6] = read-out: GSK3-B (TR-FRET 1 mM ATP), GMean, IC50, 1 mM ATP, geometric mean
[7] = 1 nM GSK3α, 4 μM ATP, 30 minute preincubation, Table 16, read-out: GSK3-A TR-FRET BIOCHEMICAL (TR-FRET)
[8] = 1 nM GSK3b, 2 μM ATP, 30 minute preincubation, Table 16, read-out: GSK3-B TR-FRET BIOCHEMICAL (TR-FRET)
[9] = 1 nM GSK3α, 4 μM ATP, 30 minute preincubation, read-out: GSK3-A TR-FRET BIOCHEMICAL (TR-FRET), IC50
[10] = 1 nM GSK3b, 2 μM ATP, 30 minute preincubation, read-out: GSK3-B TR-FRET BIOCHEMICAL (TR-FRET), IC50
[11] = GSK3-A (TR-FRET 1 mM ATP), GMean, IC50, 1 mM ATP, geometric mean
[12] = GSK3-B (TR-FRET 1 mM ATP), GMean, IC50, 1 mM ATP, geometric mean

GSK3b (GST-full length GSK3b), sequence (P49841 whole entry): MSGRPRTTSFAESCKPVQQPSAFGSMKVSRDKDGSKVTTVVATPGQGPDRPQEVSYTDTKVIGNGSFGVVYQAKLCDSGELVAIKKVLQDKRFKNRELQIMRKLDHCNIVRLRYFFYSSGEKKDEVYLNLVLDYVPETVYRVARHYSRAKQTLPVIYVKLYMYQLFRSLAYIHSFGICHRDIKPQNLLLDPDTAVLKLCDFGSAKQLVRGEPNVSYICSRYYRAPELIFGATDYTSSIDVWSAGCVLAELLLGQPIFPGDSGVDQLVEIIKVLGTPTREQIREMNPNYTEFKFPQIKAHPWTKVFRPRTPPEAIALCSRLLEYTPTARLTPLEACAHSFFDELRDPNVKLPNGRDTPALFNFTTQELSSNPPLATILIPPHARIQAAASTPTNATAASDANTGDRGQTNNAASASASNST
GSK3α (GST-full length GSK3α), sequence (P49840 whole entry): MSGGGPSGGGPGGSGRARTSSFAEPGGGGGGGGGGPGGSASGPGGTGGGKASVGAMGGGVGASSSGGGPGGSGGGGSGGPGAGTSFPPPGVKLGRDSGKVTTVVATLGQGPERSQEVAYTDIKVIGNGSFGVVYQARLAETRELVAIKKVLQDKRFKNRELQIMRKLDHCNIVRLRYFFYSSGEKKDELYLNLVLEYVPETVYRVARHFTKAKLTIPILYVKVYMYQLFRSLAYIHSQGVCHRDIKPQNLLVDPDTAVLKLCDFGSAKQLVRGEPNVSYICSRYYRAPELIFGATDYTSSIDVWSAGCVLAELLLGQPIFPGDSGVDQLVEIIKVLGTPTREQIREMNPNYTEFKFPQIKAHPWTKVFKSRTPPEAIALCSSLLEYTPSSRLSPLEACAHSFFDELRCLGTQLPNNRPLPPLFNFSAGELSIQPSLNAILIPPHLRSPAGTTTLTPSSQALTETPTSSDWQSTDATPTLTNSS

Row | Compound | IC50 [1, 7] [µM] | IC50 [2, 8] [µM] | other results
1 | CC[C@]1(c2cccc(-c3c(C)nn(C)c3C)c2)C2=C(CC(C)(C)NC2=O)Nc2n[nH]cc21 [Compound 947408] |  |  | IC50 [1, 3]: ≤ 0.1 µM; IC50 [1, 4]: 0.1 to 1 µM; IC50 [2, 5]: ≤ 0.1 µM; IC50 [2, 6]: 1 to 5 µM
2 | CC[C@]1(c2cccc(-c3ccncc3C)c2)C2=C(CC(C)(C)NC2=O)Nc2n[nH]c(C)c21 [Compound 947409] |  |  | IC50 [1, 3]: 1 to 5 µM; IC50 [2, 5]: > 5 µM
3 | CC[C@]1(c2cccc(-c3cnn4c3CCCC4)c2)C2=C(CC(C)(C)NC2=O)Nc2n[nH]cc21 [Compound 947410] |  |  | IC50 [1, 3]: ≤ 0.1 µM; IC50 [1, 4]: 0.1 to 1 µM; IC50 [2, 5]: 0.1 to 1 µM; IC50 [2, 6]: > 5 µM
4 | CCC1(c2cccc(-c3ccnc(C)c3)c2)C2=C(CC3(CCOC3)CC2=O)Nc2n[nH]cc21 (stereo not drawn) [Compound 947412] | 1 to 5 | > 5 | 
5 | CC[C@@]1(c2cccc(-c3c(C)nn(C)c3C)c2)C2=C(CC(C)(C)NC2=O)Nc2n[nH]cc21 [Compound 947413] |  |  | IC50 [1, 3]: 1 to 5 µM; IC50 [2, 5]: > 5 µM
6 | CC[C@@]1(c2cccc(-c3ccncc3C)c2)C2=C(CC(C)(C)NC2=O)Nc2n[nH]c(C)c21 [Compound 947414] |  |  | IC50 [1, 3]: ≤ 0.1 µM; IC50 [1, 4]: 0.1 to 1 µM; IC50 [2, 5]: ≤ 0.1 µM; IC50 [2, 6]: 1 to 5 µM
7 | CCC1(c2cccc(-c3cnn4c3CCCC4)c2)C2=C(CC(C)(C)NC2=O)Nc2n[nH]cc21 (stereo not drawn) [Compound 947415] |  |  | IC50 [1, 3]: 1 to 5 µM; IC50 [2, 5]: > 5 µM
8 | CCC1(c2cccc(C(F)(F)F)c2)C2=C(CCN(c3cccnc3)C2=O)Nc2n[nH]cc21 (stereo not drawn) [Compound 947433] |  |  | IC50 [1, 3]: > 5 µM; IC50 [2, 5]: > 5 µM
9 | Cc1ccc(S(=O)(=O)N2CCC3(CC2)C2=C(CC(C)(C)CC2=O)Nc2n[nH]cc23)cc1 [Compound 947459] | ≤ 0.1 | 0.1 to 1 | 
10 | Cc1c(S(=O)(=O)N2CCC3(CC2)C2=C(CC(C)(C)CC2=O)Nc2n[nH]cc23)cnn1C [Compound 947460] | ≤ 0.1 | ≤ 0.1 | 
11 | CC1(C)CC(=O)C2=C(C1)Nc1n[nH]cc1C21CCN(S(=O)(=O)c2ccn(-c3ccccc3)n2)CC1 [Compound 947461] |  |  | IC50 [1, 9]: ≤ 0.1 µM; IC50 [2, 10]: ≤ 0.1 µM
12 | CC1(C)CC(=O)C2=C(C1)Nc1n[nH]cc1C21CCN(S(=O)(=O)c2cnc3ccccc3c2)CC1 [Compound 947462] | ≤ 0.1 | ≤ 0.1 | IC50 [1, 11]: 0.1 to 1 µM; IC50 [2, 12]: 1 to 5 µM
13 | CC1(C)CC(=O)C2=C(C1)Nc1n[nH]cc1C21CCN(S(=O)(=O)c2cnccc2C(F)(F)F)CC1 [Compound 947463] | ≤ 0.1 | 0.1 to 1 | 
14 | CC1(C)CC(=O)C2=C(C1)Nc1n[nH]cc1C21CCN(S(=O)(=O)c2cccc3c2OCCO3)CC1 [Compound 947464] |  |  | IC50 [1, 9]: ≤ 0.1 µM; IC50 [1, 11]: ≤ 0.1 µM; IC50 [2, 10]: ≤ 0.1 µM; IC50 [2, 12]: 0.1 to 1 µM
15 | COc1cncc(S(=O)(=O)N2CCC3(CC2)C2=C(CC(C)(C)CC2=O)Nc2n[nH]cc23)c1 [Compound 947465] | ≤ 0.1 | ≤ 0.1 | 
16 | CC1(C)CC(=O)C2=C(C1)Nc1n[nH]cc1C21CCN(S(=O)(=O)c2cnnn2-c2ccccc2)CC1 [Compound 947466] | ≤ 0.1 | 0.1 to 1 | 
17 | CC1(C)CC(=O)C2=C(C1)Nc1n[nH]cc1C21CCN(S(=O)(=O)c2cnc3n2CCC3)CC1 [Compound 947467] | ≤ 0.1 | 0.1 to 1 | 
18 | Cc1ccc(S(=O)(=O)N2CCC3(CC2)C2=C(CC(C)(C)CC2=O)Nc2n[nH]cc23)c(C)c1 [Compound 947468] | ≤ 0.1 | ≤ 0.1 | 
19 | CC1(C)CC(=O)C2=C(C1)Nc1n[nH]cc1C21CCN(S(=O)(=O)c2cccc3ncccc23)CC1 [Compound 947469] | ≤ 0.1 | ≤ 0.1 | 
20 | CC1(C)CC(=O)C2=C(C1)Nc1n[nH]cc1C21CCN(S(=O)(=O)c2cccc3c2CCCC3)CC1 [Compound 947470] | ≤ 0.1 | ≤ 0.1 | 
21 | Cc1ccc(C)c(S(=O)(=O)N2CCC3(CC2)C2=C(CC(C)(C)CC2=O)Nc2n[nH]cc23)c1 [Compound 947471] | ≤ 0.1 | 0.1 to 1 | 

Row | Compound | IC50 [1, 7] [µM] | IC50 [2, 8] [µM] | other results
22 | CC1(C)CC(=O)C2=C(C1)Nc1n[nH]cc1C21CCN(S(=O)(=O)c2cn3c(n2)CCCC3)CC1 [Compound 947472] | ≤ 0.1 | 0.1 to 1 | 
23 | CC(C)c1ccccc1S(=O)(=O)N1CCC2(CC1)C1=C(CC(C)(C)CC1=O)Nc1n[nH]cc12 [Compound 947473] | 0.1 to 1 | 0.1 to 1 | 
24 | CC1(C)CC(=O)C2=C(C1)Nc1n[nH]cc1C21CCN(S(=O)(=O)c2cnn3c2CCCC3)CC1 [Compound 947474] | ≤ 0.1 | ≤ 0.1 | 
25 | Cc1cc(S(=O)(=O)N2CCC3(CC2)C2=C(CC(C)(C)CC2=O)Nc2n[nH]cc23)ccc1Cl [Compound 947475] | ≤ 0.1 | ≤ 0.1 | 
26 | CC1(C)CC(=O)C2=C(C1)Nc1n[nH]cc1C21CCN(S(=O)(=O)c2ccc3ccccc3n2)CC1 [Compound 947476] |  |  | IC50 [1, 9]: ≤ 0.1 µM; IC50 [2, 10]: ≤ 0.1 µM
27 | COCCn1cc(S(=O)(=O)N2CCC3(CC2)C2=C(CC(C)(C)CC2=O)Nc2n[nH]cc23)cn1 [Compound 947477] | ≤ 0.1 | ≤ 0.1 | 
28 | COc1ccc(S(=O)(=O)N2CCC3(CC2)C2=C(CC(C)(C)CC2=O)Nc2n[nH]cc23)cc1F [Compound 947478] | ≤ 0.1 | ≤ 0.1 | 
29 | CC1(C)CC(=O)C2=C(C1)Nc1n[nH]cc1C21CCN(S(=O)(=O)c2ccccc2C#N)CC1 [Compound 947479] | ≤ 0.1 | ≤ 0.1 | 
30 | CC1(C)CC(=O)C2=C(C1)Nc1n[nH]cc1C21CCN(S(=O)(=O)c2cnc3n2CCCC3)CC1 [Compound 947480] | ≤ 0.1 | ≤ 0.1 | 
31 | Cc1cc(S(=O)(=O)N2CCC3(CC2)C2=C(CC(C)(C)CC2=O)Nc2n[nH]cc23)ccn1 [Compound 947481] | ≤ 0.1 | ≤ 0.1 | 
32 | Cc1ccc(S(=O)(=O)N2CCC3(CC2)C2=C(CC(C)(C)CC2=O)Nc2n[nH]cc23)cn1 [Compound 947482] | ≤ 0.1 | ≤ 0.1 | 
33 | CC1(C)CC(=O)C2=C(C1)Nc1n[nH]cc1C21CCN(S(=O)(=O)c2cnn3c2OCCC3)CC1 [Compound 947483] | ≤ 0.1 | ≤ 0.1 | 
34 | CC1(C)CC(=O)C2=C(C1)Nc1n[nH]cc1C21CCN(S(=O)(=O)c2c(F)cc(F)cc2F)CC1 [Compound 947484] |  |  | IC50 [1, 9]: ≤ 0.1 µM; IC50 [2, 10]: ≤ 0.1 µM
35 | CC1(C)CC(=O)C2=C(C1)Nc1n[nH]cc1C21COC2(CN(C(=O)C(F)F)C2)C1 (stereo not drawn) [Compound 947485] |  |  | IC50 [1, 9]: ≤ 0.1 µM; IC50 [2, 10]: ≤ 0.1 µM
36 | CC1(C)CC(=O)C2=C(C1)Nc1n[nH]cc1C21COC2(CN(C(=O)C3CCC(F)C3)C2)C1 (stereo not drawn) [Compound 947486] |  |  | IC50 [1, 9]: ≤ 0.1 µM; IC50 [2, 10]: ≤ 0.1 µM
37 | CC1(C)CC(=O)C2=C(C1)Nc1n[nH]cc1C21COC2(CN(C(=O)C3(F)CC3)C2)C1 (stereo not drawn) [Compound 947487] |  |  | IC50 [1, 9]: ≤ 0.1 µM; IC50 [2, 10]: ≤ 0.1 µM
38 | CCC1(c2cccc(-c3c(C)cnn3C)c2)C2=C(CC(C)(C)CC2=O)Nc2n[nH]cc21 (stereo not drawn) [Compound 947491] | ≤ 0.1 | ≤ 0.1 | 
39 | CCC1(c2cccc(-c3cnn4c3CCC4)c2)C2=C(CC(C)(C)CC2=O)Nc2n[nH]cc21 (stereo not drawn) [Compound 947494] | ≤ 0.1 | 0.1 to 1 | 
40 | CC[C@]1(c2cccc(Cc3ncccn3)c2)C2=C(CC(C)(C)CC2=O)Nc2n[nH]cc21 [Compound 947499] | 1 to 5 | > 5 | IC50 [1, 4]: > 5 µM; IC50 [2, 6]: > 5 µM
41 | CC[C@@]1(c2cccc(-c3c(F)cncc3OC)c2)C2=C(CC(C)(C)CC2=O)Nc2n[nH]cc21 [Compound 947511] | ≤ 0.1 | ≤ 0.1 | IC50 [1, 4]: ≤ 0.1 µM; IC50 [2, 6]: ≤ 0.1 µM
